Results reported in article PMC8155809 (The Journal of General Physiology, 2021).

Target: T1, Human TREK-2 (KCNK10) crystal construct (Homo sapiens, UniProt P57789)
T1 construct: “crystal construct” protein (Gly67 to Glu340); made in house
T1 sequence (P57789 67-340 isoform P57789-4): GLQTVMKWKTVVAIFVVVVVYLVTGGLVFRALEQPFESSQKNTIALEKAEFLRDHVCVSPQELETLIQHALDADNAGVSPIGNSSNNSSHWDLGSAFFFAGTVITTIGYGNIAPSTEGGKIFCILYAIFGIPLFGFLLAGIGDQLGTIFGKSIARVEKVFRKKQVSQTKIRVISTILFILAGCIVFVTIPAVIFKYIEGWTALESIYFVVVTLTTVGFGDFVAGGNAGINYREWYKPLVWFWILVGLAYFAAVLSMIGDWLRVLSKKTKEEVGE
Assay: Single-channel recordings of purified TREK-2 reconstituted in lipid bilayers
Assay type: biochemical
Settings: for Po (single-channel open probability) / block of channel (Po): 10 µM NFx; for Po (single-channel open probability): +60 mV; for AC1, area of closed state 1 / AC2, area of closed state 2 / AC3, area of closed state 3 / AC4, area of closed state 4 / AC5, area of closed state 5 / τC1, mean lifetime of closed state 1 / τC2, mean lifetime of closed state 2 / τC3, mean lifetime of closed state 3 / τC4, mean lifetime of closed state 4 / τC5, mean lifetime of closed state 5 / τO, mean open time: 100 μM NFx
Procedure: Human TREK-2 (KCNK10) “crystal construct” protein (Gly67 to Glu340) was expressed and purified as previously described ([Dong et al., 2015]), with the exception that it was purified in 1% wt/vol n-octyl-β-D-glucoside, 0.1% wt/vol cholesteryl hemisuccinate. 1,2-Diphytanoyl-sn-glycero-3-phosphocholine was dissolved in chloroform to a concentration of 10 mM and stored at −20°C. The GUVs were then made by electroformation in a 1 M sorbitol solution using Vesicle Prep Pro (Nanion Technologies). Purified TREK-2 was then mixed with GUVs to a final concentration of ∼1–5 µg/ml and incubated overnight at 4°C with 0.5 mg/ml Bio-Beads (Bio-Rad) before use.
All electrophysiological recordings were performed with the Nanion Port-a-Patch system connected to an Axopatch 200B amplifier via a Digidata 1440A digitizer (Molecular Devices). Data were filtered at 5 kHz and recorded at a 200-kHz sampling rate with program Clampex (Molecular Devices). Experiments were performed in symmetrical 200 mM KCl and 10 mM HEPES (pH 6.0 with KOH) solutions. Single-channel currents were idealized using 50% threshold criterion with program Clampfit (Molecular Devices) at an imposed resolution of 50 µs. Only one open and one closed level were considered in the analysis; all subconductance states were neglected (these typically comprised less than 1% of open- and closed-level events of channels in the “high PO” mode). Analysis of amplitude and dwell-time distributions was performed in Origin (OriginLab Corporation) and an in-house software written in Mathematica (Wolfram Technologies). Empirical correction for open times due to missed events was performed as described previously ([Davies et al., 1992]). Critical time for burst analysis was determined using Colquhoun and Sakmann criterion ([Colquhoun and Sakmann, 1985]).

In the case of `NCCC(Oc1ccc(C(F)(F)F)cc1)c1ccccc1` (stereo not drawn) [NFx, norfluoxetine], the “Po (single-channel open probability)” value (channel with high Po (Fig. S5B)) is reported as 0.70, the “Po (single-channel open probability)” value (channel with low Po (Fig. S5A)) is reported as 0.048 and the “block of channel (Po)” value (high-Po mode) is reported as 20 ± 0.02%. The “block of channel (Po)” value (standard mode) was 23 ± 0.05%, the “AC1, area of closed state 1” value (V 20 mV, high-Po mode) was 74% and the “AC2, area of closed state 2” value (V 20 mV, high-Po mode) was 15.5%. For the same compound, the “AC3, area of closed state 3” value (V 20 mV, high-Po mode) was 4.4%, the “AC4, area of closed state 4” value (V 20 mV, high-Po mode) was 4.9% and the “AC5, area of closed state 5” value (V 20 mV, high-Po mode) was 1.5%. For the same compound, the “τC1, mean lifetime of closed state 1” value (V 20 mV, high-Po mode) was 0.041 ms, the “τC2, mean lifetime of closed state 2” value (V 20 mV, high-Po mode) was 0.30 ms and the “τC3, mean lifetime of closed state 3” value (V 20 mV, high-Po mode) was 1.3 ms. The “τC4, mean lifetime of closed state 4” value (V 20 mV, high-Po mode) was 23 ms, the “τC5, mean lifetime of closed state 5” value (V 20 mV, high-Po mode) was 90 ms and the “τO, mean open time” value (V 20 mV, high-Po mode) was 0.53 ms. The “AC1, area of closed state 1” value (V 40 mV, high-Po mode) was 75%, the “AC2, area of closed state 2” value (V 40 mV, high-Po mode) was 13.7% and the “AC3, area of closed state 3” value (V 40 mV, high-Po mode) was 3.3%. The “AC4, area of closed state 4” value (V 40 mV, high-Po mode) was 6.2%, the “AC5, area of closed state 5” value (V 40 mV, high-Po mode) was 2.0% and the “τC1, mean lifetime of closed state 1” value (V 40 mV, high-Po mode) was 0.083 ms. For the same compound, the “τC2, mean lifetime of closed state 2” value (V 40 mV, high-Po mode) was 0.36 ms, the “τC3, mean lifetime of closed state 3” value (V 40 mV, high-Po mode) was 4.8 ms and the “τC4, mean lifetime of closed state 4” value (V 40 mV, high-Po mode) was 39 ms. For the same compound, the “τC5, mean lifetime of closed state 5” value (V 40 mV, high-Po mode) was 160 ms, the “τO, mean open time” value (V 40 mV, high-Po mode) was 0.69 ms and the “AC1, area of closed state 1” value (V 60 mV, high-Po mode) was 75%. The “AC2, area of closed state 2” value (V 60 mV, high-Po mode) was 13.9%, the “AC3, area of closed state 3” value (V 60 mV, high-Po mode) was 3.5% and the “AC4, area of closed state 4” value (V 60 mV, high-Po mode) was 5.7%. The “AC5, area of closed state 5” value (V 60 mV, high-Po mode) was 1.6%, the “τC1, mean lifetime of closed state 1” value (V 60 mV, high-Po mode) was 0.059 ms and the “τC2, mean lifetime of closed state 2” value (V 60 mV, high-Po mode) was 0.31 ms. The “τC3, mean lifetime of closed state 3” value (V 60 mV, high-Po mode) was 2.1 ms, the “τC4, mean lifetime of closed state 4” value (V 60 mV, high-Po mode) was 41 ms and the “τC5, mean lifetime of closed state 5” value (V 60 mV, high-Po mode) was 160 ms. For the same compound, the “τO, mean open time” value (V 60 mV, high-Po mode) was 0.60 ms, the “AC1, area of closed state 1” value (V 80 mV, high-Po mode) was 76% and the “AC2, area of closed state 2” value (V 80 mV, high-Po mode) was 11.9%. For the same compound, the “AC3, area of closed state 3” value (V 80 mV, high-Po mode) was 1.9%, the “AC4, area of closed state 4” value (V 80 mV, high-Po mode) was 7.7% and the “AC5, area of closed state 5” value (V 80 mV, high-Po mode) was 2.6%. For the same compound, the “τC1, mean lifetime of closed state 1” value (V 80 mV, high-Po mode) was 0.055 ms, the “τC2, mean lifetime of closed state 2” value (V 80 mV, high-Po mode) was 0.32 ms and the “τC3, mean lifetime of closed state 3” value (V 80 mV, high-Po mode) was 2.9 ms. The “τC4, mean lifetime of closed state 4” value (V 80 mV, high-Po mode) was 78 ms, the “τC5, mean lifetime of closed state 5” value (V 80 mV, high-Po mode) was 490 ms and the “τO, mean open time” value (V 80 mV, high-Po mode) was 0.49 ms. The “AC1, area of closed state 1” value (V 100 mV, high-Po mode) was 77%, the “AC2, area of closed state 2” value (V 100 mV, high-Po mode) was 9.2% and the “AC3, area of closed state 3” value (V 100 mV, high-Po mode) was 2.5%. For the same compound, the “AC4, area of closed state 4” value (V 100 mV, high-Po mode) was 7.5%, the “AC5, area of closed state 5” value (V 100 mV, high-Po mode) was 4.1% and the “τC1, mean lifetime of closed state 1” value (V 100 mV, high-Po mode) was 0.064 ms. The “τC2, mean lifetime of closed state 2” value (V 100 mV, high-Po mode) was 0.30 ms, the “τC3, mean lifetime of closed state 3” value (V 100 mV, high-Po mode) was 1.9 ms and the “τC4, mean lifetime of closed state 4” value (V 100 mV, high-Po mode) was 72 ms. The “τC5, mean lifetime of closed state 5” value (V 100 mV, high-Po mode) was 220 ms, the “τO, mean open time” value (V 100 mV, high-Po mode) was 0.44 ms and the “AC1, area of closed state 1” value (V −20 mV, high-Po mode) was 81%. For the same compound, the “AC2, area of closed state 2” value (V −20 mV, high-Po mode) was 10.7%, the “AC3, area of closed state 3” value (V −20 mV, high-Po mode) was 2.5% and the “AC4, area of closed state 4” value (V −20 mV, high-Po mode) was 5.0%. The “AC5, area of closed state 5” value (V −20 mV, high-Po mode) was 0.6%, the “τC1, mean lifetime of closed state 1” value (V −20 mV, high-Po mode) was 0.061 ms and the “τC2, mean lifetime of closed state 2” value (V −20 mV, high-Po mode) was 0.35 ms. For the same compound, the “τC3, mean lifetime of closed state 3” value (V −20 mV, high-Po mode) was 2.5 ms, the “τC4, mean lifetime of closed state 4” value (V −20 mV, high-Po mode) was 45 ms and the “τC5, mean lifetime of closed state 5” value (V −20 mV, high-Po mode) was 260 ms. The “τO, mean open time” value (V −20 mV, high-Po mode) was 0.54 ms, the “AC1, area of closed state 1” value (V −40 mV, high-Po mode) was 85% and the “AC2, area of closed state 2” value (V −40 mV, high-Po mode) was 9.3%. The “AC3, area of closed state 3” value (V −40 mV, high-Po mode) was 1.7%, the “AC4, area of closed state 4” value (V −40 mV, high-Po mode) was 4.2% and the “AC5, area of closed state 5” value (V −40 mV, high-Po mode) was 0.2%. The “τC1, mean lifetime of closed state 1” value (V −40 mV, high-Po mode) was 0.069 ms, the “τC2, mean lifetime of closed state 2” value (V −40 mV, high-Po mode) was 0.35 ms and the “τC3, mean lifetime of closed state 3” value (V −40 mV, high-Po mode) was 2.5 ms. For the same compound, the “τC4, mean lifetime of closed state 4” value (V −40 mV, high-Po mode) was 52 ms, the “τC5, mean lifetime of closed state 5” value (V −40 mV, high-Po mode) was 520 ms and the “τO, mean open time” value (V −40 mV, high-Po mode) was 0.51 ms. For the same compound, the “AC1, area of closed state 1” value (V −60 mV, high-Po mode) was 85%, the “AC2, area of closed state 2” value (V −60 mV, high-Po mode) was 9.5% and the “AC3, area of closed state 3” value (V −60 mV, high-Po mode) was 1.2%. For the same compound, the “AC4, area of closed state 4” value (V −60 mV, high-Po mode) was 3.4%, the “AC5, area of closed state 5” value (V −60 mV, high-Po mode) was 0.6% and the “τC1, mean lifetime of closed state 1” value (V −60 mV, high-Po mode) was 0.082 ms. The “τC2, mean lifetime of closed state 2” value (V −60 mV, high-Po mode) was 0.30 ms, the “τC3, mean lifetime of closed state 3” value (V −60 mV, high-Po mode) was 1.6 ms and the “τC4, mean lifetime of closed state 4” value (V −60 mV, high-Po mode) was 44 ms. For the same compound, the “τC5, mean lifetime of closed state 5” value (V −60 mV, high-Po mode) was 230 ms, the “τO, mean open time” value (V −60 mV, high-Po mode) was 0.35 ms and the “AC1, area of closed state 1” value (V −80 mV, high-Po mode) was 89%. For the same compound, the “AC2, area of closed state 2” value (V −80 mV, high-Po mode) was 6.0%, the “AC3, area of closed state 3” value (V −80 mV, high-Po mode) was 1.0% and the “AC4, area of closed state 4” value (V −80 mV, high-Po mode) was 2.8%. The “AC5, area of closed state 5” value (V −80 mV, high-Po mode) was 0.8%, the “τC1, mean lifetime of closed state 1” value (V −80 mV, high-Po mode) was 0.110 ms and the “τC2, mean lifetime of closed state 2” value (V −80 mV, high-Po mode) was 0.37 ms. For the same compound, the “τC3, mean lifetime of closed state 3” value (V −80 mV, high-Po mode) was 9.5 ms, the “τC4, mean lifetime of closed state 4” value (V −80 mV, high-Po mode) was 58 ms and the “τC5, mean lifetime of closed state 5” value (V −80 mV, high-Po mode) was 140 ms. The “τO, mean open time” value (V −80 mV, high-Po mode) was 0.27 ms, the “AC1, area of closed state 1” value (V −100 mV, high-Po mode) was 88% and the “AC2, area of closed state 2” value (V −100 mV, high-Po mode) was 8.0%. The “AC3, area of closed state 3” value (V −100 mV, high-Po mode) was 0.6%, the “AC4, area of closed state 4” value (V −100 mV, high-Po mode) was 2.2% and the “AC5, area of closed state 5” value (V −100 mV, high-Po mode) was 1.0%. The “τC1, mean lifetime of closed state 1” value (V −100 mV, high-Po mode) was 0.110 ms, the “τC2, mean lifetime of closed state 2” value (V −100 mV, high-Po mode) was 0.37 ms and the “τC3, mean lifetime of closed state 3” value (V −100 mV, high-Po mode) was 3.0 ms. For the same compound, the “τC4, mean lifetime of closed state 4” value (V −100 mV, high-Po mode) was 40 ms, the “τC5, mean lifetime of closed state 5” value (V −100 mV, high-Po mode) was 140 ms and the “τO, mean open time” value (V −100 mV, high-Po mode) was 0.20 ms.
